Counter-ions that a name gives are not always drawn. ± gives the uncertainty stated by the source.
Columns and labels:
[1] = tested on: Klebsiella pneumoniae ATCC 13882; experiment: final OD630 (growth) after 24 h; higher = more bacterial growth; extreme values may be limits of the assay
Protocol: (§1)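 Klebsiella pneumoniae ATCC 13882 (start OD600 0.05) grown in M9U medium with 40 mM urea and phenol red plus inhibitor, in triplicate in 96-well plates. A557 and OD630 were read every 15 min for 24 h. Ureolysis was followed as the pH-related A557-A630: onset time, Gompertz-fit rate and final value. Growth was followed as OD630.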

[2] = tested on: Klebsiella pneumoniae ATCC 13882; experiment: onset of ureolytic pH increase; higher = more delayed ureolysis (inhibition)
Protocol: as §1

[3] = tested on: Klebsiella pneumoniae ATCC 13882; experiment: rate of pH (A557-A630) increase, Gompertz fit (10^-4 s-1); higher = faster ureolysis; extreme values may be limits of the assay
Protocol: as §1

[4] = tested on: Klebsiella pneumoniae ATCC 13882; experiment: final pH-related absorbance (A557-A630) after 24 h (absorbance units); higher = more ureolysis; extreme values may be limits of the assay
Protocol: as §1

Structure (SMILES) | final OD630 ([1]; 0.1 mM) | final OD630 ([1]; 1 mM) | final OD630 ([1]; 10 mM) | onset of ureolytic pH increase ([2]; 0.1 mM) | onset of ureolytic pH increase ([2]; 1 mM) | onset of ureolytic pH increase ([2]; 10 mM) | rate of pH ([3]; 0.1 mM) | rate of pH ([3]; 1 mM) | rate of pH ([3]; 10 mM) | final pH-related absorbance ([4]; 0.1 mM) | final pH-related absorbance ([4]; 1 mM) | final pH-related absorbance ([4]; 10 mM) | other results
CNC(N)=O [Methylurea] | 0.418 ± 0.0043 | 0.427 ± 0.0012 | 0.419 ± 0.0011 | 615.2 ± 1.6 min | 615 ± 2.4 min | 622.5 ± 0.96 min | 1.54 ± 0.021 | 1.531 ± 0.014 | 1.551 ± 0.0041 | 0.17 ± 0.0022 | 0.174 ± 0.001 | 0.173 ± 0.001 | 
NC(=O)CN(CC(=O)O)CC(=O)O [N-(2-acetamido)iminodiacetic acid] |  |  |  |  |  |  |  |  |  |  |  |  | final OD630 ([1]; 0.0035 mM): 0.548 ± 0.048; final OD630 ([1]; 0.0351 mM): 0.519 ± 0.0043; final OD630 ([1]; 0.351 mM): 0.511 ± 0.0089; onset of ureolytic pH increase ([2]; 0.0035 mM): 570 ± 8.3 min; onset of ureolytic pH increase ([2]; 0.0351 mM): 562.4 ± 3 min; onset of ureolytic pH increase ([2]; 0.351 mM): 581.8 ± 1.1 min; rate of pH ([3]; 0.0035 mM): 1.791 ± 0.016; rate of pH ([3]; 0.0351 mM): 1.805 ± 0.018; rate of pH ([3]; 0.351 mM): 1.77 ± 0.053; final pH-related absorbance ([4]; 0.0035 mM): 0.217 ± 0.0022; final pH-related absorbance ([4]; 0.0351 mM): 0.218 ± 0.0017; final pH-related absorbance ([4]; 0.351 mM): 0.219 ± 0.0049
NCCS [Cysteamine hydrochloride] | 0.5 ± 0.0053 | 0.487 ± 0.0016 | 0.447 ± 0.0027 | 510 ± 6.2 min | 607.5 ± 1.2 min | 911.1 ± 1.1 min | 1.44 ± 0.07 | 0.893 ± 0.012 | 0.736 ± 0.0043 | 0.256 ± 0.0053 | 0.246 ± 0.0058 | 0.097 ± 0.0002 | 
O=C(O)c1cc(O)c(O)c(O)c1 [Gallic acid monohydrate] |  |  |  |  |  |  |  |  |  |  |  |  | final OD630 ([1]; 0.056 mM): 0.454 ± 0.007; final OD630 ([1]; 0.56 mM): 0.45 ± 0.003; onset of ureolytic pH increase ([2]; 0.056 mM): 562.9 ± 3.7 min; onset of ureolytic pH increase ([2]; 0.56 mM): 617 ± 18 min; rate of pH ([3]; 0.056 mM): 2.0688 ± 0.0018; rate of pH ([3]; 0.56 mM): 1.8 ± 0.028; final pH-related absorbance ([4]; 0.056 mM): 0.19 ± 0.0003; final pH-related absorbance ([4]; 0.56 mM): 0.191 ± 0.028
COC(=O)[C@@H](N)CS [L-cysteine methyl ester hydrochloride] | 0.457 ± 0.0075 | 0.261 ± 0.0026 |  | 595.25 ± 0.35 min | > 900 min |  | 1.55 ± 0.16 | 0 |  | 0.566 ± 0.001 | 0 |  | 
CCOC(=O)[C@@H](N)CS [L-cysteine ethyl ester hydrochloride] | 0.547 ± 0.018 | 0.299 ± 0.003 | 0.422 ± 0.045 | 441.6 ± 4 min | > 900 min | > 900 min | 2.06 ± 0.11 | 0 | 0 | 0.394 ± 0.031 | 0 | 0 | 
O=S(O)(O)=S [Sodium thiosulfate] | 0.476 ± 0.0014 | 0.457 ± 0.0043 | 0.454 ± 0.011 | 570 ± 6.7 min | 595.8 ± 5 min | 611 ± 7.8 min | 2.09 ± 0.021 | 2.11 ± 0.025 | 2.2095 ± 0.0016 | 0.154 ± 0.0011 | 0.14 ± 0.0017 | 0.142 ± 0.011 | 
O=C(O)CN(CCN(CC(=O)O)CC(=O)O)CCN(CC(=O)O)CC(=O)O [Diethylenetriaminepentaacetic acid] |  |  |  |  |  |  |  |  |  |  |  |  | final OD630 ([1]; 0.004 mM): 0.439 ± 0.001; final OD630 ([1]; 0.036 mM): 0.311 ± 0.003; final OD630 ([1]; 0.364 mM): 0.21 ± 0.005; onset of ureolytic pH increase ([2]; 0.004 mM): 568 ± 11 min; onset of ureolytic pH increase ([2]; 0.036 mM): > 900 min; onset of ureolytic pH increase ([2]; 0.364 mM): > 900 min; rate of pH ([3]; 0.004 mM): 2.08 ± 0.049; rate of pH ([3]; 0.036 mM): 0; rate of pH ([3]; 0.364 mM): 0; final pH-related absorbance ([4]; 0.004 mM): 0.196 ± 0.016; final pH-related absorbance ([4]; 0.036 mM): 0; final pH-related absorbance ([4]; 0.364 mM): 0
NC(=O)NO [Hydroxyurea] | 0.483 ± 0.006 | 0.452 ± 0.031 | 0.262 ± 0.002 | 436 ± 6.5 min | 442 ± 25 min | > 900 min | 1.89 ± 0.32 | 1.01 ± 0.031 | 0 | 0.258 ± 0.007 | 0.198 ± 0.029 | 0 | 
NC(N)=S [Thiourea] | 0.48 ± 0.0071 | 0.492 ± 0.012 | 0.483 ± 0.008 | 410 ± 18 min | 424 ± 12 min | 456 ± 13 min | 2.27 ± 0.21 | 2.13 ± 0.083 | 1.94 ± 0.099 | 0.271 ± 0.024 | 0.25 ± 0.0002 | 0.236 ± 0.014 | 
[F-].[Na+] [Sodium flouride] | 0.408 ± 0.0001 | 0.368 ± 0.0081 | 0.335 ± 0.0025 | 733.1 ± 3.4 min | > 1500 min | > 1500 min | 1.35 ± 0.025 | 0 | 0 | 0.178 ± 0.0021 | 0 | 0 | 
O=[N+]([O-])[O-].[Ag+] [AgNO3] | 0 | 0 | 0 | > 1500 min | > 1500 min | > 1500 min | 0 | 0 | 0 | 0 | 0 | 0 | 
N[C@@H](Cc1c[nH]cn1)C(=O)O [L-histidine] | 0.709 ± 0.008 | 0.706 ± 0.007 | 0.715 ± 0.026 | 368.4 ± 3.6 min | 411.2 ± 1.3 min | 588 ± 5.9 min | 3.03 ± 0.049 | 3.09 ± 0.27 | 1.12 ± 0.078 | 0.485 ± 0.022 | 0.506 ± 0.007 | 0.63 ± 0.016 | 
CNC(=O)NC [N.N'-Dimethylurea] | 0.502 ± 0.0051 | 0.411 ± 0.018 | 0 | 592.2 ± 2.8 min | 784 ± 29 min | 0 min | 1.69 ± 0.054 | 1.77 ± 0.022 | 0.0814 ± 0.0017 | 0.213 ± 0.004 | 0.197 ± 0.095 | 0.456 ± 0.0086 | 
O=S([O-])[O-].[Na+].[Na+] [Sodium sulfite] | 0.477 ± 0.013 | 0.504 ± 0.027 | 0.416 ± 0.004 | 420 ± 13 min | 444 ± 24 min | 593 ± 7.5 min | 2.1 ± 0.24 | 1.883 ± 0.013 | 0.984 ± 0.011 | 0.461 ± 0.054 | 0.373 ± 0.006 | 0.273 ± 0.011 | 
OB(O)O [Boric acid] | 0.437 ± 0.0082 | 0.432 ± 0.0018 | 0.297 ± 0.0064 | 591 ± 6.2 min | 616 ± 34 min | > 900 min | 1.62 ± 0.03 | 1.48 ± 0.2 | 0 | 0.409 ± 0.0087 | 0.418 ± 0.018 | 0 | 
N[C@@H](CS)C(=O)O [L-cysteine] | 0.431 ± 0.0025 | 0.334 ± 0.008 | 0.289 ± 0.01 | 952 ± 1.8 min | > 1500 min | > 1500 min | 1.656 ± 0.0059 | 0 | 0 | 0.225 ± 0.0018 | 0 | 0 | 
O=C(O)CNCC(=O)O [Iminodiacetic acid] |  |  |  |  |  |  |  |  |  |  |  |  | final OD630 ([1]; 0.008 mM): 0.44 ± 0.003; final OD630 ([1]; 0.08 mM): 0.429 ± 0.003; final OD630 ([1]; 0.802 mM): 0.373 ± 0.011; onset of ureolytic pH increase ([2]; 0.008 mM): 565.5 ± 3.2 min; onset of ureolytic pH increase ([2]; 0.08 mM): 562.6 ± 1.5 min; onset of ureolytic pH increase ([2]; 0.802 mM): 663 ± 19 min; rate of pH ([3]; 0.008 mM): 2.086 ± 0.011; rate of pH ([3]; 0.08 mM): 2.13 ± 0.052; rate of pH ([3]; 0.802 mM): 1.82 ± 0.045; final pH-related absorbance ([4]; 0.008 mM): 0.184 ± 0.004; final pH-related absorbance ([4]; 0.08 mM): 0.211 ± 0.017; final pH-related absorbance ([4]; 0.802 mM): 0.209 ± 0.007
NC(=S)Nc1cccc(C(=O)O)c1 [1-(3-Carboxyphenyl)-2-thiourea] |  |  |  |  |  |  |  |  |  |  |  |  | final OD630 ([1]; 0.00075 mM): 0.489 ± 0.005; final OD630 ([1]; 0.0075 mM): 0.51 ± 0.017; final OD630 ([1]; 0.075 mM): 0.49 ± 0.01; onset of ureolytic pH increase ([2]; 0.00075 mM): 436 ± 6.5 min; onset of ureolytic pH increase ([2]; 0.0075 mM): 423 ± 18 min; onset of ureolytic pH increase ([2]; 0.075 mM): 435 ± 6.4 min; rate of pH ([3]; 0.00075 mM): 1.92 ± 0.078; rate of pH ([3]; 0.0075 mM): 2.06 ± 0.18; rate of pH ([3]; 0.075 mM): 2.15 ± 0.048; final pH-related absorbance ([4]; 0.00075 mM): 0.246 ± 0.012; final pH-related absorbance ([4]; 0.0075 mM): 0.27 ± 0.023; final pH-related absorbance ([4]; 0.075 mM): 0.24 ± 0.011
CC(=O)NO [Acetohydroxamic acid] | 0.479 ± 0.016 | 0.356 ± 0.01 | 0.258 ± 0.004 | 507 ± 13 min | 725 ± 9.2 min | > 900 min | 1.12 ± 0.047 | 1.31 ± 0.054 | 0 | 0.437 ± 0.044 | 0.057 ± 0.006 | 0 | 
O=S(=O)(O)SSS(=O)(=O)O [Sodium tetrathionate dihydrate] | 0.532 ± 0.027 | 0.541 ± 0.021 | 0.554 ± 0.021 | 433 ± 21 min | 434 ± 22 min | 430 ± 23 min | 3.64 ± 1.1 | 3.32 ± 1.5 | 3.97 ± 1.7 | 0.569 ± 0.076 | 0.492 ± 0.1 | 0.5 ± 0.12 | 
NCCNCCNCCN [Triethylenetetraamine] | 0.448 ± 0.091 | 0.384 ± 0.017 | 0 |  |  |  |  |  |  |  |  |  | 
